Bridge positions count the residues as written; N and C are the ends. Square brackets hold non-standard residues; d marks the D form. Peptide text beside a SMILES is read from it.
Assays:
[1] = biological target: T1, SSTR2 (Rattus norvegicus, UniProt P30680); test: Competitive binding of 125I labeled S-14 to membranes of cells expressing transfected SSTR2 (SPA); parameters: expressed in transfected cells
Procedure: Membrane preparation. Tissue culture cell lines expressing transfected cDNA clones of SSTR2 and SSTR5 are used as a source of plasma membranes which specifically bind ^125I labeled S-14 (Amersham, Arlington Heights, IL). Cells are removed from culture dishes by incubation at 4°C for 5 minutes in PBS containing 1 mM EDTA, spun down (2,000 rpm, 5') and resuspended in 15 mL homogenization buffer (1 mM sodium bicarbonate pH 7.2, 1 mM EDTA, 1 mM EGTA and the following protease inhibitors: leupeptin and aprotenin at 5 µg/mL and benzamidine and bacitracin at 100 µg/mL). Cells are given 20 strokes with a Dounce homogenizer on ice and spun at 2000 rpm for 10 minutes. Membranes are isolated from the supernatant by centrifugation at 17,000 rpm for 30 minutes. The membrane pellet is washed once in 15 mL homogenization buffer and once in storage buffer (25 mM Tris pH 7.4 containing protease inhibitors). […] The membrane pellet is resuspended in storage buffer, measured for protein concentration (BioRad, CA) and stored at -80°C.
Binding assay. […] Bound radioligand is determined by counting in a Microbeta Liquid Scintillation counter (Wallac, Gaithersburg, MD). Binding data is plotted and IC50 and Ki values are calculated for test compounds using Prism software (Graphpad Software Inc., San Diego, CA) and are shown in Table V. Binding is expressed as Ki, µM.

[2] = biological target: T1, SSTR2; test: cAMP accumulation in forskolin-stimulated GH4C1/SSTR2 cells (SPA radioimmunoassay); format: cell-based; parameters: expressed in transfected cells; host or cells: GH4C1 rat pituitary tumor cells; conditions: GH4-C1; test peptide 100 µM; percent reversal of SSTR2 activation by SRIF or MK678; 0% = forskolin plus agonist, 100% = forskolin alone; read-out: cAMP Assay Intrinsic activity

T1 sequence (P30680 whole entry): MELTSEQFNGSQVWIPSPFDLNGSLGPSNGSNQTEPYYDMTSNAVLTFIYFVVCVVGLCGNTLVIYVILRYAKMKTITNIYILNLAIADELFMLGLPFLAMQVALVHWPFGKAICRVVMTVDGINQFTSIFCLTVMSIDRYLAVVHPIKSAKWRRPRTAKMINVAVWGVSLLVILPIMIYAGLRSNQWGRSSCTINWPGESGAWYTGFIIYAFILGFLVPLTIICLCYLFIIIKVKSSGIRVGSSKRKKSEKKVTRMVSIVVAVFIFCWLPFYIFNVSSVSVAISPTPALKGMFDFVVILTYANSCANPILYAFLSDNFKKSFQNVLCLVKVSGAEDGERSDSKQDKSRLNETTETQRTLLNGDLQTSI

Compound `CC[C@@H](C)[C@H]1NC(=O)[C@@H](Cc2ccccc2)NC(=O)[C@@H](Cc2c[nH]cn2)NC(=O)[C@@H](N)CSSC[C@@H](C(=O)O)NC(=O)[C@@H](Cc2ccccc2)NC(=O)[C@@H](Cc2c[nH]c3ccccc23)NC(=O)[C@@H](CCCNC(=N)N)NC1=O` [Peptide 34, ss C-h-f-i-r-w-f-C] (H-C[dH][dF][dI][dR][dW][dF]C-OH; disulfide 1-8) has a Ki [1] of 1.95 µM and an Emax [2] of 25.9%.

— EP0863156A1, “Peptides useful as somatostatin antagonists” (American Cyanamid Company, priority 1997, dated 1998)
